target: Pancreatic triacylglycerol lipase (Sus scrofa) (UniProt P00591); assay: Inhibition of porcine pancreatic lipase using p-nitrophenylbutyrate as substrate preincubated for 10 mins followed by substrate addition measured after 20 mins; conditions: not given

IC50 [µM] | SMILES
24.1 | Cc1cc(C)cc(-c2cc3c(c(-c4cc(C)cc(C)c4)c2O)CC[C@@H]2[C@@H]3CC[C@]3(C)C(=O)CC[C@@H]23)c1
1.21 | Cc1ccc(-c2cc3c(cc2O)CC[C@@H]2[C@@H]3CC[C@]3(C)C(=O)CC[C@@H]23)cc1
6.42 | C[C@]12CC[C@@H]3c4ccc(O)c(-c5ccc(OC(F)(F)F)cc5)c4CC[C@H]3[C@@H]1CCC2=O
25.6 | C[C@]12CC[C@@H]3c4cc(-c5ccccc5)c(O)c(-c5ccccc5)c4CC[C@H]3[C@@H]1CCC2=O
16.3 | C[C@]12CC[C@@H]3c4cc(-c5ccc(C(F)(F)F)cc5)c(O)cc4CC[C@H]3[C@@H]1CCC2=O
13.6 | CCc1ccc(-c2c(O)ccc3c2CC[C@@H]2[C@@H]3CC[C@]3(C)C(=O)CC[C@@H]23)cc1
1.36 | C[C@]12CC[C@@H]3c4ccc5oc(=O)c6ccccc6c5c4CC[C@H]3[C@@H]1CCC2=O
7.19 | C[C@]12CC[C@@H]3c4cc(-c5cccc(F)c5)c(O)c(-c5cccc(F)c5)c4CC[C@H]3[C@@H]1CCC2=O
5.28 | COc1ccc(-c2cc3c(c(-c4ccc(OC)cc4)c2O)CC[C@@H]2[C@@H]3CC[C@]3(C)C(=O)CC[C@@H]23)cc1
16.3 | C[C@]12CC[C@@H]3c4cc(-c5cccc(F)c5)c(O)cc4CC[C@H]3[C@@H]1CCC2=O
1.34 | C[C@]12CC[C@@H]3c4ccc(O)c(-c5cccc(F)c5)c4CC[C@H]3[C@@H]1CCC2=O
1.78 | CC(C)(C)c1ccc(-c2c(O)ccc3c2CC[C@@H]2[C@@H]3CC[C@]3(C)C(=O)CC[C@@H]23)cc1
0.93 | C[C@]12CC[C@@H]3c4cc(-c5ccccc5F)c5oc6ccccc6c5c4CC[C@H]3[C@@H]1CCC2=O
12.3 | COc1ccc(-c2cc3c(cc2O)CC[C@@H]2[C@@H]3CC[C@]3(C)C(=O)CC[C@@H]23)cc1
1.75 | C[C@]12CC[C@@H]3c4cc(-c5ccc(Cl)cc5)c(O)c(-c5ccc(Cl)cc5)c4CC[C@H]3[C@@H]1CCC2=O
59.7 | COc1cc(OC)cc(-c2c(O)ccc3c2CC[C@@H]2[C@@H]3CC[C@]3(C)C(=O)CC[C@@H]23)c1
16.4 | COc1cc(OC)cc(-c2cc3c(cc2O)CC[C@@H]2[C@@H]3CC[C@]3(C)C(=O)CC[C@@H]23)c1
2.54 | C[C@]12CC[C@@H]3c4cc(-c5ccc(OC(F)(F)F)cc5)c(O)cc4CC[C@H]3[C@@H]1CCC2=O
0.82 | C[C@]12CC[C@@H]3c4ccc(O)c(-c5ccc(C(F)(F)F)cc5)c4CC[C@H]3[C@@H]1CCC2=O
1.21 | C[C@]12CC[C@@H]3c4cc(-c5ccc(OC(F)(F)F)cc5)c(O)c(-c5ccc(OC(F)(F)F)cc5)c4CC[C@H]3[C@@H]1CCC2=O
8.29 | CC(C)(C)c1ccc(-c2cc3c(c(-c4ccc(C(C)(C)C)cc4)c2O)CC[C@@H]2[C@@H]3CC[C@]3(C)C(=O)CC[C@@H]23)cc1
0.82 | C[C@]12CC[C@@H]3c4cc(-c5ccc(F)cc5)c(O)c(-c5ccc(F)cc5)c4CC[C@H]3[C@@H]1CCC2=O

SMILES | IC50 [µM]
C[C@]12CC[C@@H]3c4ccc(O)c(-c5ccccc5)c4CC[C@H]3[C@@H]1CCC2=O | 1.54
CC(C)(C)c1ccc(-c2cc3c(cc2O)CC[C@@H]2[C@@H]3CC[C@]3(C)C(=O)CC[C@@H]23)cc1 | 5.66

target: not listed separately; assay: Inhibition of pancreatic lipase (unknown origin) assessed as decrease in release of fatty acid from triolein incubated for 30 mins by phenolphthalein-baed titrimetric method; parameters: species or system Homo sapiens; conditions: not given

SMILES | IC50 [µg/mL]
CC(C)c1cc2c(c(O)c1O)[C@@]1(C(=O)O)CCCC(C)(C)[C@@H]1CC2 [CARNOSIC ACID] | 12

same assay, conditions: read-out: IC50

IC50 [µM] | SMILES
> 20 | Oc1cc(O)c2c(c1)O[C@H](c1ccc(O)c(O)c1)[C@H](O)C2 [(-)-EPICATECHIN]
15.8 | C[C@H]1[C@H](C)CC[C@]2(C(=O)O)CC[C@]3(C)C(=CC[C@@H]4[C@@]5(C)CC[C@H](O)C(C)(C)[C@@H]5CC[C@]43C)[C@H]12 [URSOLIC ACID]
41.8 | Cc1cc2c(c(O)c1-c1c(C)cc3c(c1O)C(=O)c1c(O)cc(O)cc1C3=O)C(=O)c1c(O)cccc1C2=O [CASSIAMIN A]

test system: pancreatic lipase (Sus scrofa); assay: Inhibition of pancreatic lipase (unknown origin) at 100 uM using p-nitrophenylbutyrate as substrate preincubated for 10 mins followed by substrate addition measured after 20 mins; conditions: not given

inhibition [%] | SMILES
39 | Cc1ccc(-c2cc3c(c(-c4ccc(C)cc4)c2O)CC[C@@H]2[C@@H]3CC[C@]3(C)C(=O)CC[C@@H]23)cc1
43 | C[C@]12CC[C@@H]3c4cc(-c5ccccc5F)c(O)c(-c5ccccc5F)c4CC[C@H]3[C@@H]1CCC2=O
32 | C[C@]12CC[C@@H]3c4ccc5oc6ccccc6c5c4CC[C@H]3[C@@H]1CCC2=O
37 | COc1ccc(-c2cc3c(c(-c4ccc(OC)c(OC)c4OC)c2O)CC[C@@H]2[C@@H]3CC[C@]3(C)C(=O)CC[C@@H]23)c(OC)c1OC
43 | COc1ccc(-c2c(O)ccc3c2CC[C@@H]2[C@@H]3CC[C@]3(C)C(=O)CC[C@@H]23)c(OC)c1OC
41 | CCc1ccc(-c2cc3c(c(-c4ccc(CC)cc4)c2O)CC[C@@H]2[C@@H]3CC[C@]3(C)C(=O)CC[C@@H]23)cc1
42 | C[C@]12CC[C@@H]3c4cc(-c5ccc(C(F)(F)F)cc5)c(O)c(-c5ccc(C(F)(F)F)cc5)c4CC[C@H]3[C@@H]1CCC2=O
42 | COc1ccc(-c2c(O)ccc3c2CC[C@@H]2[C@@H]3CC[C@]3(C)C(=O)CC[C@@H]23)cc1
45 | C[C@]12CC[C@@H]3c4ccc(O)c(-c5ccc(Cl)cc5)c4CC[C@H]3[C@@H]1CCC2=O
38 | Cc1ccc(-c2c(O)ccc3c2CC[C@@H]2[C@@H]3CC[C@]3(C)C(=O)CC[C@@H]23)cc1

SMILES | inhibition [%]
C[C@]12CC[C@@H]3c4cc(-c5ccccc5)c(O)cc4CC[C@H]3[C@@H]1CCC2=O | 39

Source: ChEMBL document CHEMBL3875210, “Synthesis, functionalization and biological activity of arylated derivatives of (+)-estrone” (Bioorg Med Chem, 2017)
